The target in the assay is T1, BC4707 (Bacillus cereus, UniProt Q816V8).
T1 construct: gene BC_4707; full-length with RGSHis6 tag (kept), expressed from pTTQ18 (pBC4707) in E. coli DH5alpha delta-acrAB
The assay can be described thus: norfloxacin accumulation assay, fluorescence of cell extracts vs empty-vector cells. In kind it is cell-based. Particulars: E. coli DH5alpha delta-acrAB, 100 uM norfloxacin, 20 mM glucose, pH 7.0; CCCP (100 uM) added at 15 min.

T1 sequence (Q816V8 entry or part of it): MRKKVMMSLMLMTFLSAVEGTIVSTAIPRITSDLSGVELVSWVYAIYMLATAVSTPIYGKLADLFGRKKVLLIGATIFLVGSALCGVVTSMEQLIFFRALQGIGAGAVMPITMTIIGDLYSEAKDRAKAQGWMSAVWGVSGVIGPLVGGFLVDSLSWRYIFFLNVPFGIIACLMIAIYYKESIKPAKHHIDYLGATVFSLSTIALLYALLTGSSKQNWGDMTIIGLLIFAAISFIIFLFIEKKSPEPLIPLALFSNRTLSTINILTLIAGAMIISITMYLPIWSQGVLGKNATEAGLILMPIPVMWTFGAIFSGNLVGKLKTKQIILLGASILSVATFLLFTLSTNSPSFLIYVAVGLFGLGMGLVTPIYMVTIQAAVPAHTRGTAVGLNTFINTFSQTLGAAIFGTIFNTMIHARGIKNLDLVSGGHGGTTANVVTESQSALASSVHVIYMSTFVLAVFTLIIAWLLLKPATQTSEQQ

As for `CCn1cc(C(=O)O)c(=O)c2cc(F)c(N3CCNCC3)cc21` [norfloxacin], the “norfloxacin accumulation assay, fluorescence of cell extracts vs empty-vector ce” value is listed as “indicating that the presence of BC4707-RGSHis6 prevents accumulation of norfloxacin in the cells”.
